Like-named read-outs stand apart in the source and are kept apart here.
Columns and labels:
Test in all cases: biochemical
Set-up in all cases: Eurofins DiscoverX kinase panel, competitive binding assay at 1 uM, percent of DMSO control
Details in all cases: competitive binding, percent of DMSO control
KDR = KDR (Homo sapiens, UniProt P35968)
How it was run: (§1)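 Single-point profiling at 1 µM compound in a competition-binding format against 96 kinases, read out as POC relative to control; n = 1.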

NEK4 = NEK4 (Homo sapiens, UniProt P51957)
NEK4, sequence (P51957 whole entry): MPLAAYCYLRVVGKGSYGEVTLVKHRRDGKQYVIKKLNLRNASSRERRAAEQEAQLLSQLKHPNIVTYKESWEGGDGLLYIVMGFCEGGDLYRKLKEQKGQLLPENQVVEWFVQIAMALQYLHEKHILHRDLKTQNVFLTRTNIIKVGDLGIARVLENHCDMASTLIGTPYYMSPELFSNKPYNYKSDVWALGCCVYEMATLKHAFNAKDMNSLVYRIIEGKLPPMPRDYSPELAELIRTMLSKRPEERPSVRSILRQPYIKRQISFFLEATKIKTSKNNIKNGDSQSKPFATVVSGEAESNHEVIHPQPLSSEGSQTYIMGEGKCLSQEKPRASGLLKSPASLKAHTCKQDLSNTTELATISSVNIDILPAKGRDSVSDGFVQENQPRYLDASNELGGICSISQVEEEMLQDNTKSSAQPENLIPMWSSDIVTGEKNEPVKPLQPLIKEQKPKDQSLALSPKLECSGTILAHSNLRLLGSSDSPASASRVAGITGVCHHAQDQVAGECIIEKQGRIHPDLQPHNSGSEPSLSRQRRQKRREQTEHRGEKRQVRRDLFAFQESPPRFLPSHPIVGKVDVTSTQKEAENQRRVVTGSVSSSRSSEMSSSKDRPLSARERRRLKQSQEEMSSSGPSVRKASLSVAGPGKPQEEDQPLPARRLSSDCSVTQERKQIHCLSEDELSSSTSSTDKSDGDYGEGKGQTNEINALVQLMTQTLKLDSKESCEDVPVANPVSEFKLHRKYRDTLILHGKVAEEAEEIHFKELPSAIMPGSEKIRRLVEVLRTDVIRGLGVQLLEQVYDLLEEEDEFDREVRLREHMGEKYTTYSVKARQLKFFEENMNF
How it was run: as §1

Stk33 = Stk33 (Homo sapiens, UniProt Q9BYT3)
Stk33, sequence (Q9BYT3 whole entry): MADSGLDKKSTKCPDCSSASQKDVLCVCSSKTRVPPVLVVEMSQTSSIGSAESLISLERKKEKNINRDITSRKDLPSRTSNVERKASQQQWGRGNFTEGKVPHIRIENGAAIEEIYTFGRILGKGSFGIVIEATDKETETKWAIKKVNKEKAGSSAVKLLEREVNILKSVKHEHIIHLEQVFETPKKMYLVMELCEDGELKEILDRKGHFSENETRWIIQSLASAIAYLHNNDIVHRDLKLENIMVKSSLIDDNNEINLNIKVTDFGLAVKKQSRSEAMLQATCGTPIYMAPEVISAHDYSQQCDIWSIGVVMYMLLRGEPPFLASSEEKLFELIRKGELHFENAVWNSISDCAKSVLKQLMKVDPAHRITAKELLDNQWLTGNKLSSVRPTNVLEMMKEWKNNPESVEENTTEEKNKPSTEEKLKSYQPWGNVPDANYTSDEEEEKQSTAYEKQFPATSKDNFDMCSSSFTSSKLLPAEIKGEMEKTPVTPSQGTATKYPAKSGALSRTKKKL
How it was run: as §1

PKC ε = target: T1, PKC ε (Homo sapiens, UniProt Q02156)
T1 construct: gene PRKCE
T1 sequence (Q02156 1-737): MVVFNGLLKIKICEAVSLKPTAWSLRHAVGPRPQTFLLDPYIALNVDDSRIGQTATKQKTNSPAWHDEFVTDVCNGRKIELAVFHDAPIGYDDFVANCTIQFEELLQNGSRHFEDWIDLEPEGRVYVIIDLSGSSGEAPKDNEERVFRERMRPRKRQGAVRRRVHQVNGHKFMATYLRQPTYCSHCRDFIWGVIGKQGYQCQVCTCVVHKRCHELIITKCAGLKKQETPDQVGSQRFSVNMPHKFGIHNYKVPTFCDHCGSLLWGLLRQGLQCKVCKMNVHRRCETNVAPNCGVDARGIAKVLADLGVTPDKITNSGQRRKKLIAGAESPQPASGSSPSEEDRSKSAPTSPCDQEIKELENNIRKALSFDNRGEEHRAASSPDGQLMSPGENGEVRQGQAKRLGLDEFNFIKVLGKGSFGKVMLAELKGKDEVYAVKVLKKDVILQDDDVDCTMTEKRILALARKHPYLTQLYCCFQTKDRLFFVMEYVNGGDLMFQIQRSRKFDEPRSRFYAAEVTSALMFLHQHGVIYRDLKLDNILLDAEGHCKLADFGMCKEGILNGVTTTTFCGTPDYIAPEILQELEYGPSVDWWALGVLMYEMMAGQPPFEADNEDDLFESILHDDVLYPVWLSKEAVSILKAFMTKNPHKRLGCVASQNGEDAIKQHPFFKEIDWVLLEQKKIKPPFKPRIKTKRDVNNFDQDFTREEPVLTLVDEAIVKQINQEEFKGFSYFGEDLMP
How it was run: as §1

DDR1 = DDR1 (Homo sapiens, UniProt Q08345)
DDR1, sequence (Q08345 whole entry): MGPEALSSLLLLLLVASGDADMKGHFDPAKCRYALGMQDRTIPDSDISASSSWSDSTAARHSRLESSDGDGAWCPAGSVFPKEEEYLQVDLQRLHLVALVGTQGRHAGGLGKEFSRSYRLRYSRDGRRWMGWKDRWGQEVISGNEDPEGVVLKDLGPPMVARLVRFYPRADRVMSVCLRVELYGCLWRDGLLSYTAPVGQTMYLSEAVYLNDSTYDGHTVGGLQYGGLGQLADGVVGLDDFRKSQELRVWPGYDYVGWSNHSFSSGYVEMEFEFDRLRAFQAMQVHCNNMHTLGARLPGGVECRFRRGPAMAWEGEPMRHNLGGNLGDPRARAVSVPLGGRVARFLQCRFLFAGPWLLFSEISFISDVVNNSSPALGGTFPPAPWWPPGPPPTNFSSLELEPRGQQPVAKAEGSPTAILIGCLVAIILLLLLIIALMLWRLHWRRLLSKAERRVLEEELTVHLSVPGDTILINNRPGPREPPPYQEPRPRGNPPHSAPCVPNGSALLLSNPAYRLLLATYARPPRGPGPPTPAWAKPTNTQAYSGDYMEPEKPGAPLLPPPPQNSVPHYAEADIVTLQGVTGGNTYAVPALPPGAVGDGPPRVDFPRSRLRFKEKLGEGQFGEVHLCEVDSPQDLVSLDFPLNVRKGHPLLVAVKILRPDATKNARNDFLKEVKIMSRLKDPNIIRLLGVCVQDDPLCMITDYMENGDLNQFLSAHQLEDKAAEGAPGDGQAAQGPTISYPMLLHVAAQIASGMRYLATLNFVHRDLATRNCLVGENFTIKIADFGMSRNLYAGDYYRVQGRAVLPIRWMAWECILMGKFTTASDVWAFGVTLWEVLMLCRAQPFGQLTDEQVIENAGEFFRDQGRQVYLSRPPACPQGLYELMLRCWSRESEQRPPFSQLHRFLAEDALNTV
How it was run: as §1

PAK 2 = target: T2, PAK 2 (Homo sapiens, UniProt Q13177)
T2 construct: gene PAK2
T2 sequence (Q13177 whole entry): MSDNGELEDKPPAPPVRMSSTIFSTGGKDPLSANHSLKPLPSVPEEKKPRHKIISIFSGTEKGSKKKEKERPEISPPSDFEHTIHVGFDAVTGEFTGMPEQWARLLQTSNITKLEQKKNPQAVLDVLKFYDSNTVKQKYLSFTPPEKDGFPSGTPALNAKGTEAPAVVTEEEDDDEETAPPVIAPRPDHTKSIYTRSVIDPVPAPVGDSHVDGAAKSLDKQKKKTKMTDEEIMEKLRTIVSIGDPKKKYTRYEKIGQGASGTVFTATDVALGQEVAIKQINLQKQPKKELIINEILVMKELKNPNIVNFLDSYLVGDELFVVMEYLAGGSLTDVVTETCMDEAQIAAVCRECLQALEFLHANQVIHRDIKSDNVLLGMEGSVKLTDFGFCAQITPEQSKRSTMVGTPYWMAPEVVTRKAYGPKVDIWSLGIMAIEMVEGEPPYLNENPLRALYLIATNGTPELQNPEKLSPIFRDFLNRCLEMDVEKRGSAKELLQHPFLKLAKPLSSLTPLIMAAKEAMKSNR
How it was run: as §1

[1] = read-out: Kinome Profiling performed by Eurofins DiscoverX / AM-1882, 1.0 µM / POC
[2] = read-out: Kinome Profiling performed by Eurofins DiscoverX / AM-0277, 1.0 µM / POC
[3] = read-out: Kinome Profiling performed by Eurofins DiscoverX / AM-5308, 1.0 µM / POC

KDR, sequence (P35968 whole entry): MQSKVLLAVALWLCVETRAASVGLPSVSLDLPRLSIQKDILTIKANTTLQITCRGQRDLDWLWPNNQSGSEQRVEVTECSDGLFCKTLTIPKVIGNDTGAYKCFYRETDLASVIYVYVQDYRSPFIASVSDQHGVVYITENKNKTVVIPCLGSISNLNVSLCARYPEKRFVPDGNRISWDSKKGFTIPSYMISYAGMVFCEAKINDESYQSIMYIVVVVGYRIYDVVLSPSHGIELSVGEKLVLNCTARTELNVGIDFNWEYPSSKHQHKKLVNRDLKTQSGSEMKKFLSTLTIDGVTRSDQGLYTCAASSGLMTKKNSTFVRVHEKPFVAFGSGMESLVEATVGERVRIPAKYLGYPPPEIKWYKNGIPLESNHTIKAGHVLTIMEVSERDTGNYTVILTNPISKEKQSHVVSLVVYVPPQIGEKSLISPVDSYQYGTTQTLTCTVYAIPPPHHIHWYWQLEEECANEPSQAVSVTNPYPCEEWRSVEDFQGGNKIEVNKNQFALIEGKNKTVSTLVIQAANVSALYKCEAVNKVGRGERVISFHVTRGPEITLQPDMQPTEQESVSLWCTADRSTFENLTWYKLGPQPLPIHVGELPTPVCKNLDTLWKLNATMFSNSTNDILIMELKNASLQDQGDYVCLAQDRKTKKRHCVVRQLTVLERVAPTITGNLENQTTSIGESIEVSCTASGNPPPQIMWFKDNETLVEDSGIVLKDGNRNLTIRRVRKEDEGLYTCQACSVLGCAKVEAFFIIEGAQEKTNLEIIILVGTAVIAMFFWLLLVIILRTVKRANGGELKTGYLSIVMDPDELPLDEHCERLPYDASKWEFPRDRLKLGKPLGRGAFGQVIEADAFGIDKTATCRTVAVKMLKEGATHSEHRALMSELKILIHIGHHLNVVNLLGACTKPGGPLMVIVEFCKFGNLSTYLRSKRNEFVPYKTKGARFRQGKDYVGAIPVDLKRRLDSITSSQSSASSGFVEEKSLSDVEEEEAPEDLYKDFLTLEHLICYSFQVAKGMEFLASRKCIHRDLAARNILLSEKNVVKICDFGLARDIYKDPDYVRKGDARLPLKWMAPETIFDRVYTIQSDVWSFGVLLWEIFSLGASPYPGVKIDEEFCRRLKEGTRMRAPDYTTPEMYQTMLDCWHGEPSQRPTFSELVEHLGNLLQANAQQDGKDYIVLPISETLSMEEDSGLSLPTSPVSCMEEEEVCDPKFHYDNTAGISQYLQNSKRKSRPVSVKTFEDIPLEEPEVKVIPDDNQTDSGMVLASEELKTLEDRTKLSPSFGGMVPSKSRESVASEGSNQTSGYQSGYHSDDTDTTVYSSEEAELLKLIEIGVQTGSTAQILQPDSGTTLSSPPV

`CC(C)(C)NS(=O)(=O)c1cccc(NC(=O)c2ccc(S(=O)(=O)NC(C)(C)C)cc2N2CCC3(CC2)CC3)c1` [AM-1882] was tested, and the remaining activity at 1 µM (KDR; [1]) was 80.5%, the remaining activity at 1 µM (NEK4; [1]) was 89% and the remaining activity at 1 µM (Stk33; [1]) was 98%. It also gave a remaining activity at 1 µM (PKC ε; [1]) of 93%, a remaining activity at 1 µM (DDR1; [1]) of 97% and a remaining activity at 1 µM (PAK 2; [1]) of 100%.

`CC(C)(CO)Nc1ccc(C(=O)Nc2cccc(S(=O)(=O)C3CCCC3)c2)c(N2CCC3(CC2)CC3)n1` [AM-0277] was tested, and the remaining activity at 1 µM (KDR; [2]) was 90%, the remaining activity at 1 µM (NEK4; [2]) was 100% and the remaining activity at 1 µM (Stk33; [2]) was 86%. The remaining activity at 1 µM (PKC ε; [2]) was 100%, the remaining activity at 1 µM (DDR1; [2]) was 95% and the remaining activity at 1 µM (PAK 2; [2]) was 100%.

`C[C@@H]1CN(c2cccc(NC(=O)c3ccc(NS(=O)(=O)CCO)cc3N3CCC4(CC3)CC4)n2)CCO1` [AM-5308] gave a remaining activity at 1 µM (KDR; [3]) of 53%, a remaining activity at 1 µM (NEK4; [3]) of 100% and a remaining activity at 1 µM (Stk33; [3]) of 89%. For the same compound, the remaining activity at 1 µM (PKC ε; [3]) was 97.5%, the remaining activity at 1 µM (DDR1; [3]) was 100% and the remaining activity at 1 µM (PAK 2; [3]) was 66.5%.
